Data on 30 molecules can be found in patent US9850245B2 (Merck Sharp & Dohme Corp., priority 2014, dated 2017).

Where a name gives a salt, the structure may show the parent alone.

In the assay the target is ROMK (Homo sapiens (Human), UniProt P48048). Briefly: Thallium Flux Assay. The assay is classed as cell-based. As for the experimental part: A Thallium Flux Assay was performed on the compounds of the Examples. This assay has been described previously; see, e.g., PCT Published Application WO 2013/062900.
Chain of ROMK (P48048 whole entry): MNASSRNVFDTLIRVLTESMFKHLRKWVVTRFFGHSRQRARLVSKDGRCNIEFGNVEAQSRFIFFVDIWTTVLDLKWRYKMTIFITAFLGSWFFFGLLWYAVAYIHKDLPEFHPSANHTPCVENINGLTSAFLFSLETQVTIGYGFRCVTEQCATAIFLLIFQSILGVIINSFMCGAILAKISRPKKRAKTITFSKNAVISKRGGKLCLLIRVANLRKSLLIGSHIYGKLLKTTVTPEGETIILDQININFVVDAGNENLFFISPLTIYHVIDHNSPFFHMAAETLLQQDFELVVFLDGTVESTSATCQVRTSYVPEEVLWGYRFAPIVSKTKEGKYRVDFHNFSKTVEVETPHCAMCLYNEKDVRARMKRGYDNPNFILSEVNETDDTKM

The IC50 is the concentration that inhibits the measured activity by half. Low values mean greater potency in that assay, high ones weaker potency in that assay. In turn, `CC1=C(N2CCOC3(CCN(CC(O)c4ccc(-n5cnnn5)cc4C)CC3)C2)COC1=O` (single isomer, unassigned) [Example 31B, 4-(9-(2-hydroxy-2-(2-methyl-4-(1H-tetrazol-1-yl)phenyl)ethyl)-1-oxa-4,9-diazaspiro[5.5]undecan-4-yl)-3-methylfuran-2(5H)-one] came in with a half-inhibitory concentration (IC50) of 26 nM.

Molecule `CC1=C(N2C(=O)C3(CCN(C[C@@H](O)c4ccc(-n5cnnn5)nc4)CC3)OCC2C)COC1=O` (single isomer, unassigned) [Example 10A] returned a concentration for half-maximal inhibition (IC50) of 155 nM.

`CC1=C(N2C(=O)C3(CCN(C[C@H](O)c4ccc(-n5cnnn5)nc4)CC3)OCC2C)COC1=O` (single isomer, unassigned) [Example 10B] had a concentration for half-maximal inhibition (IC50) of 307 nM. This IC50 is about 2-fold higher than that of the molecule before.

`CC1=C(N2CCOC3(CCN(CC(O)c4ccc(-n5cnnn5)cc4F)CC3)C2)COC1=O` (single isomer, unassigned) [Example 32B, 4-(9-(2-(2-fluoro-4-(1H-tetrazol-1-yl)phenyl)-2-hydroxyethyl)-1-oxa-4,9-diazaspiro[5.5]undecan-4-yl)-3-methylfuran-2(5H)-one]: half-maximal inhibition (IC50) required 123 nM.

Molecule `CC1=C(N2CCOC3(CCN(C[C@@H](F)c4ccc5c(c4C)COC5=O)CC3)C2=O)COC1=O` [Example 58, (S)-9-(2-fluoro-2-(4-methyl-1-oxo-1,3-dihydroisobenzofuran-5-yl)ethyl)-4-(4-methyl-5-oxo-2,5-dihydrofuran-3-yl)-1-oxa-4,9-diazaspiro[5.5]undecan-5-one] displayed a half-inhibitory concentration (IC50) of 306 nM.

The molecule `O=C1C=C(N2CCC3(CCN(C[C@H](O)c4ccc(-n5cnnn5)nc4)CC3)OC2=O)CO1` [Example 26A, (R)-9-(2-(6-(1H-tetrazol-1-yl)pyridin-3-yl)-2-hydroxyethyl)-3-(5-oxo-2,5-dihydrofuran-3-yl)-1-oxa-3,9-diazaspiro[5.5]undecan-2-one] registered an IC50 of 171 nM.

`O=C1OCC(N2CCOC3(CCN(C[C@H](O)c4ccc(-n5cnnn5)nc4)CC3)C2)=C1C1CC1` [Example 28A, (R)-4-(9-(2-(6-(1H-tetrazol-1-yl)pyridin-3-yl)-2-hydroxyethyl)-1-oxa-4,9-diazaspiro[5.5]undecan-4-yl)-3-cyclopropylfuran-2(5H)-one] returned a 50% inhibitory concentration (IC50) of 224 nM. The IC50 values of the last two molecules are within 1.5-fold of each other.

With `CC1=C(N2CCOC3(CCCN(C[C@@H](O)c4ccc(-n5cnnn5)nc4)CC3)C2=O)COC1=O` (stereo partly drawn) [Example 15, 9-((S)-2-(6-(1H-tetrazol-1-yl)pyridin-3-yl)-2-hydroxyethyl)-4-(4-methyl-5-oxo-2,5-dihydrofuran-3-yl)-1-oxa-4,9-diazaspiro[5.6]dodecan-5-one], inhibition was half-maximal at 280 nM (IC50).

Molecule `CC1=C(N2C(=O)C3(CCN(C[C@H](O)c4ccc5c(c4C)COC5=O)CC3)OCC2C)COC1=O` (single isomer, unassigned) [Example 11] gave an IC50 of 267 nM.

`CC1=C(N2CCOC3(CC4CCC(C3)N4C[C@H](O)c3ccc4c(c3C)COC4=O)C2=O)COC1=O` (stereo partly drawn) [Example 42, (1R,2′R,5S)-8-((R)-2-hydroxy-2-(4-methyl-1-oxo-1,3-dihydroisobenzofuran-5-yl)ethyl)-4′-(4-methyl-5-oxo-2,5-dihydrofuran-3-yl)-8-azaspiro[bicyclo[3.2.1]octane-3,2′-morpholin]-3′-one]: the IC50 came to 87.4 nM. This IC50 is about 3.1-fold lower than that of the molecule before.

Molecule `O=C1C=C(N2CCOC3(CC4CCC(C3)N4CCc3ccc(-n4cnnn4)nn3)C2=O)CO1` [Example 54, (1R,2′r,5S)-8-(2-(6-(1H-tetrazol-1-yl)pyridazin-3-yl)ethyl)-4′-(5-oxo-2,5-dihydrofuran-3-yl)-8-azaspiro[bicyclo[3.2.1]octane-3,2′-morpholin]-3′-one] came in with an IC50 of 3.76 nM.

`CC1=C(N2CCOC3(CCN(C[C@H](F)c4ccc(-n5cnnn5)nc4)CC3)C2=O)COC1=O` [Example 55, (R)-9-(2-(6-(1H-tetrazol-1-yl)pyridin-3-yl)-2-fluoroethyl)-4-(4-methyl-5-oxo-2,5-dihydrofuran-3-yl)-1-oxa-4,9-diazaspiro[5.5]undecan-5-one] had a concentration for half-maximal inhibition (IC50) of 59 nM.

Consider `O=C1OCC(N2CCOC3(CCN(C[C@H](O)c4ccc(-n5cnnn5)nc4)CC3)C2)=C1Cl` [Example 24A], for which the concentration for half-maximal inhibition (IC50) came out at 11.5 nM.

On to `CC1=C(N2CCN(C)C3(CCN(CC(O)c4ccc(-n5cnnn5)nc4C)CC3)C2=O)COC1=O` (single isomer, unassigned) [Example 35A, 9-(2-hydroxy-2-(2-methyl-6-(1H-tetrazol-1-yl)pyridin-3-yl)ethyl)-1-methyl-4-(4-methyl-5-oxo-2,5-dihydrofuran-3-yl)-1,4,9-triazaspiro[5.5]undecan-5-one], for which the IC50 is 41.8 nM.

With `CC1=C(N2CC(F)(F)OC3(CCN(C[C@H](O)c4ccc(-n5cnnn5)nc4)CC3)C2)COC1=O` [Example 7A, (R)-4-(9-(2-(6-(1H-tetrazol-1-yl)pyridin-3-yl)-2-hydroxyethyl)-2,2-difluoro-1-oxa-4,9-diazaspiro[5.5]undecan-4-yl)-3-methylfuran-2(5H)-one], it took 416 nM to reach half-maximal inhibition (IC50).

Molecule `CC1=C(N2CCOC3(CCN(CC(O)c4cnc(-n5cnnn5)cn4)CC3)C2)COC1=O` (single isomer, unassigned) [Example 48A, 4-(9-(2-(5-(1H-tetrazol-1-yl)pyrazin-2-yl)-2-hydroxyethyl)-1-oxa-4,9-diazaspiro[5.5]undecan-4-yl)-3-methylfuran-2(5H)-one] returned an IC50 of 462 nM.

The molecule `O=C1OCC(N2CCOC3(CCN(C[C@@H](O)c4ccc(-n5cnnn5)nc4)CC3)C2)=C1Cl` [Example 24B] had an IC50 of 34.5 nM.

Molecule `CC1=C(N2CCNC3(CCN(C[C@@H](O)c4ccc(-n5cnnn5)nc4)CC3)C2=O)COC1=O` [Example 4B, (S)-9-(2-(6-(1H-tetrazol-1-yl)pyridin-3-yl)-2-hydroxyethyl)-4-(4-methyl-5-oxo-2,5-dihydrofuran-3-yl)-1,4,9-triazaspiro[5.5]undecan-5-one] yielded an IC50 of 63.1 nM. This IC50 lies about 1.8-fold higher than the previous one.

For the molecule `Cc1cc(-n2cnnn2)ccc1C(O)CN1CCC2(CC1)CN(C1=CC(=O)OC1)CCO2` (single isomer, unassigned) [Example 30B, 4-(9-(2-hydroxy-2-(2-methyl-4-(1H-tetrazol-1-yl)phenyl)ethyl)-1-oxa-4,9-diazaspiro[5.5]undecan-4-yl)furan-2(5H)-one], half-maximal inhibition (IC50) required 74.3 nM.

`CC1=C(N2CCOC3(CCN(C[C@@H](O)c4ccc5c(c4C)COC5=O)CC3)C2=O)COC1=O` [Example 8B, (S)-9-(2-hydroxy-2-(4-methyl-1-oxo-1,3-dihydroisobenzofuran-5-yl)ethyl)-4-(4-methyl-5-oxo-2,5-dihydrofuran-3-yl)-1-oxa-4,9-diazaspiro[5.5]undecan-5-one] came in with an IC50 of 89.9 nM.

With `CC1=C(N2CCNC3(CCN(C[C@H](O)c4ccc5c(c4C)COC5=O)CC3)C2=O)COC1=O` [Example 1, 9-[(2R)-2-hydroxy-2-(4-methyl-1-oxo-1,3-dihydro-2-benzofuran-5-yl)ethyl]-4-(4-methyl-5-oxo-2,5-dihydrofuran-3-yl)-1,4,9-triazaspiro[5.5]undecan-5-one dihydrochloride], the 50% inhibitory concentration (IC50) was 68.7 nM.

`O=C1OCC(N2CCOC3(CCN(C[C@@H](O)c4ccc(-n5cnnn5)nc4)CC3)C2)=C1C1CC1` [Example 28B, (S)-4-(9-(2-(6-(1H-tetrazol-1-yl)pyridin-3-yl)-2-hydroxyethyl)-1-oxa-4,9-diazaspiro[5.5]undecan-4-yl)-3-cyclopropylfuran-2(5H)-one] showed a 50% inhibitory concentration (IC50) of 630 nM.

Molecule `CC1=C(N2CC3(CCN(C[C@H](O)c4ccc5c(c4C)COC5=O)CC3)OCC2=O)COC1=O` [Example 59, (R)-9-(2-hydroxy-2-(4-methyl-1-oxo-1,3-dihydroisobenzofuran-5-yl)ethyl)-4-(4-methyl-5-oxo-2,5-dihydrofuran-3-yl)-1-oxa-4,9-diazaspiro[5.5]undecan-3-one] showed an IC50 of 697 nM.

`CC1=C(N2CCNC3(CCN(CC(O)c4cnc(-n5cnnn5)cn4)CC3)C2=O)COC1=O` (single isomer, unassigned) [Example 3A, 9-(2-(5-(1H-tetrazol-1-yl)pyrazin-2-yl)-2-hydroxyethyl)-4-(4-methyl-5-oxo-2,5-dihydrofuran-3-yl)-1,4,9-triazaspiro[5.5]undecan-5-one] showed a 50% inhibitory concentration (IC50) of 114 nM.

For `CC1=C(N2CC3(CCN(CC(O)c4ccc(-n5cnnn5)nc4C)CC3)OCC2=O)COC1=O` (single isomer, unassigned) [Example 60, 9-(2-hydroxy-2-(2-methyl-6-(1H-tetrazol-1-yl)pyridin-3-yl)ethyl)-4-(4-methyl-5-oxo-2,5-dihydrofuran-3-yl)-1-oxa-4,9-diazaspiro[5.5]undecan-3-one], it took 48.4 nM to reach half-maximal inhibition (IC50).

`CC1COC2(CCN(C[C@H](O)c3ccc(-n4cnnn4)nc3)CC2)C(=O)N1C1=CC(=O)OC1` (single isomer, unassigned) [Example 13B]: the IC50 worked out at 415 nM.

Turning to `CC1=C(N2CCNC3(CCN(CC(O)c4ccc(-n5cnnn5)cc4)CC3)C2=O)COC1=O` (single isomer, unassigned) [Example 5B, 9-(2-(4-(1H-tetrazol-1-yl)phenyl)-2-hydroxyethyl)-4-(4-methyl-5-oxo-2,5-dihydrofuran-3-yl)-1,4,9-triazaspiro[5.5]undecan-5-one], it took 36.8 nM to reach half-maximal inhibition (IC50).

`CC1=C(N2CCNC3(CCN(CC(O)c4ccc(-n5cnnn5)cc4)CC3)C2=O)COC1=O` (single isomer, unassigned) [Example 5A, 9-(2-(4-(1H-tetrazol-1-yl)phenyl)-2-hydroxyethyl)-4-(4-methyl-5-oxo-2,5-dihydrofuran-3-yl)-1,4,9-triazaspiro[5.5]undecan-5-one] registered an IC50 of 42.5 nM.

`CC1=C(N2CCOC3(CCN(C[C@H](O)c4ccc5c(c4C)COC5=O)CC3)CC2)COC1=O` (single isomer, unassigned) [Example 41] gave a half-inhibitory concentration (IC50) of 32.2 nM.

Regarding `CC1=C(N2CCOC3(CCN(C[C@H](F)c4ccc5c(c4C)COC5=O)CC3)C2=O)COC1=O` [Example 57, (R)-9-(2-fluoro-2-(4-methyl-1-oxo-1,3-dihydroisobenzofuran-5-yl)ethyl)-4-(4-methyl-5-oxo-2,5-dihydrofuran-3-yl)-1-oxa-4,9-diazaspiro[5.5]undecan-5-one], the IC50 amounted to 218 nM.
